This passage reports IC50, inhibition and Drug metabolism results from ChEMBL document CHEMBL4819140, “A novel GSK-3 inhibitor binds to GSK-3β via a reversible, time and Cys-199-dependent mechanism” (Bioorg Med Chem, 2021).

Data set [1] addresses T1, Glycogen synthase kinase-3 beta (Homo sapiens, UniProt P49841). The experiment in a line: Inhibition of human GSK-3beta incubated with substrate in presence of ATP measured by serial dilution assay.
Target sequence in this assay (P49841 whole entry): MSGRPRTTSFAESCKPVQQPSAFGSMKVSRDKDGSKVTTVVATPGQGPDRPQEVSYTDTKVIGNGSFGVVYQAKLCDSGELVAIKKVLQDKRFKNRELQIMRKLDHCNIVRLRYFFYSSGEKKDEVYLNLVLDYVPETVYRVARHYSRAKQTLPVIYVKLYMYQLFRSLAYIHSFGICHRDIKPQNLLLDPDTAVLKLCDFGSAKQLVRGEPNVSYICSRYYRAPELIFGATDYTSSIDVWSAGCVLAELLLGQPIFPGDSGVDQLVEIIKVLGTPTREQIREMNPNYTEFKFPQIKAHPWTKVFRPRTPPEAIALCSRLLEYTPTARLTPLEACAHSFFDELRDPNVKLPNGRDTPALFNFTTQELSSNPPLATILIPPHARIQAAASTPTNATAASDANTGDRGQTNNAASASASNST
The target of data set [2] is T1, Glycogen synthase kinase-3 beta. The experiment in a line: Inhibition of human GSK-3beta preincubated for 3 hrs followed by ATP and substrate addition measured by serial dilution assay.
Target sequence in this assay (P49841 whole entry): as above
Data set [3] shares this target. The settings on record: dose 700.0 nM.
Target sequence in this assay (P49841 whole entry, looked up): as the sequence (P49841 whole entry) above
Description: Reversible inhibition of recombinant human GSK-3beta at 700 nM incubated with substrate and ATP master mix solution by jump dilution assays
Data set [4] shares this target. To be noted: dose 200.0 nM.
Target sequence in this assay (P49841 whole entry, looked up): as the sequence (P49841 whole entry) above
The target is the same in data set [5]. The settings on record: dose 100.0 nM.
Target sequence in this assay (P49841 whole entry, looked up): as the sequence (P49841 whole entry) above
The target is the same in data set [6]. To be noted: dose 400.0 nM, time 4.5 hrs.
Target sequence in this assay (P49841 whole entry, looked up): as the sequence (P49841 whole entry) above
Data set [7] has the same target. The experiment in a line: Inhibition of human GSK-3beta assessed as decrease in relative fluorescence unit measured upto 60 mins by kinase-profiling analysis. The settings on record: time min <=60, TDE = time-dependent effect.
Target sequence in this assay (P49841 whole entry, looked up): as the sequence (P49841 whole entry) above
The target is the same in data set [8]. The experiment in a line: Reversible inhibition of recombinant human GSK-3beta at 10 uM preincubated for 3 hrs followed by diluted with substrate and ATP master mix solution measured upto 1.5 hrs by jump dilution assays. To be noted: time 4.5 hrs, TDE = time-dependent effect.
Target sequence in this assay (P49841 whole entry, looked up): as the sequence (P49841 whole entry) above
The target is the same in data set [9]. The experiment in a line: Reversible inhibition of recombinant human GSK-3beta at 10 uM preincubated for 3 hrs followed by diluted with substrate and ATP master mix solution measured first 30 mins by jump dilution assays. To be noted: time 3.5 hrs.
Data set [10] has the same target. The experiment in a line: Reversible inhibition of recombinant human GSK-3beta at 70 uM preincubated for 3 hrs followed by diluted with substrate and ATP master mix solution measured upto 1.5 hrs by jump dilution assays relative to control. The settings on record: time 4.5 hrs.
Data set [11] deals with AP2-associated protein kinase 1 (Homo sapiens) (UniProt Q2M2I8). The experiment in a line: Inhibition of human recombinant AAK1 by Lanthascreen assay. The settings on record: concentration not given here.
Data set [12] has as its target Cyclin-dependent kinase-like 5 (Homo sapiens) (UniProt O76039). The experiment in a line: Inhibition of human recombinant CDKL5 in presence of ATP by Z-lyte kinase assay. To be noted: concentration not given here.
The target in data set [13] is Vascular endothelial growth factor receptor 1 (Homo sapiens) (UniProt P17948). The experiment in a line: Inhibition of human recombinant FLT1 in presence of ATP by Z-lyte kinase assay. The settings on record: concentration not given here.
For data set [14], the target named is Receptor-type tyrosine-protein kinase FLT3 (Homo sapiens) (UniProt P36888). The experiment in a line: Inhibition of human recombinant FLT3 in presence of ATP by Z-lyte kinase assay. To be noted: concentration not given here.
Data set [15] has as its target Vascular endothelial growth factor receptor 3 (Homo sapiens) (UniProt P35916). The experiment in a line: Inhibition of human recombinant FLT4 in presence of ATP by Z-lyte kinase assay. To be noted: concentration not given here.
The target in data set [16] is Cyclin-G-associated kinase (Homo sapiens) (UniProt O14976). The experiment in a line: Inhibition of human recombinant GAK by Lanthascreen assay. The settings on record: concentration not given here.
The target of data set [17] is Glycogen synthase kinase-3 alpha (Homo sapiens) (UniProt P49840). The experiment in a line: Inhibition of human recombinant GSK3A in presence of ATP by Z-lyte kinase assay. The settings on record: concentration not given here.
Data set [18] concerns the target T1, Glycogen synthase kinase-3 beta. The experiment in a line: Inhibition of human recombinant GSK3B in presence of ATP by Z-lyte kinase assay. The settings on record: concentration not given here.
The target in data set [19] is Mast/stem cell growth factor receptor Kit (Homo sapiens) (UniProt P10721). The experiment in a line: Inhibition of human recombinant KIT in presence of ATP by Z-lyte kinase assay. The settings on record: concentration not given here.
Data set [20] has as its target Dual specificity mitogen-activated protein kinase kinase 1 (Homo sapiens) (UniProt Q02750). The experiment in a line: Inhibition of human recombinant MAP2K1 in presence of ATP by Z-lyte kinase assay. The settings on record: concentration not given here.
Data set [21] shares this target. The experiment in a line: Inhibition of human recombinant MAP2K1 by Lanthascreen assay. The settings on record: concentration not given here.
In data set [22] the target is Dual specificity mitogen-activated protein kinase kinase 2 (Homo sapiens) (UniProt P36507). The experiment in a line: Inhibition of human recombinant MAP2K2 in presence of 100 uM ATP by Z-lyte kinase assay.
Chain of Dual specificity mitogen-activated protein kinase kinase 2 (Homo sapiens) (P36507 whole entry): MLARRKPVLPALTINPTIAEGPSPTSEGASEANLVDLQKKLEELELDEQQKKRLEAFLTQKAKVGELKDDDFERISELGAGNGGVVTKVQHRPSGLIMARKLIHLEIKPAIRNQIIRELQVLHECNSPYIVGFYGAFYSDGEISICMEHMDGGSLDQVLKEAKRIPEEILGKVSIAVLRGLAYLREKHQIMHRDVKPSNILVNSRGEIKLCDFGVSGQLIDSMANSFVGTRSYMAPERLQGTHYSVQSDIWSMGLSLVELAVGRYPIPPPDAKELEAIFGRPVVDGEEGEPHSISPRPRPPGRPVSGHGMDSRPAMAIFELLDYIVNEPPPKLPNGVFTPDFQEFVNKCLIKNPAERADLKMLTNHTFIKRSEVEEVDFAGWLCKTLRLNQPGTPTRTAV
For data set [23] the target is unchanged. The experiment in a line: Inhibition of human recombinant MAP2K2 by Lanthascreen assay. To be noted: concentration not given here.
The target of data set [24] is Dual specificity mitogen-activated protein kinase kinase 3 (Homo sapiens) (UniProt P46734). The experiment in a line: Inhibition of human recombinant MAP2K3 by Lanthascreen assay. The settings on record: concentration not given here.
Data set [25] deals with Dual specificity mitogen-activated protein kinase kinase 4 (Homo sapiens) (UniProt P45985). The experiment in a line: Inhibition of human recombinant MAP2K4 by Lanthascreen assay. The settings on record: concentration not given here.
In data set [26] the target is Dual specificity mitogen-activated protein kinase kinase 5 (Homo sapiens) (UniProt Q13163). The experiment in a line: Inhibition of human recombinant MAP2K5 by Lanthascreen assay. The settings on record: concentration not given here.
Data set [27] concerns the target Mitogen-activated protein kinase kinase kinase 7 (Homo sapiens) (UniProt O43318). The experiment in a line: Inhibition of human recombinant MAP3K7 by Lanthascreen assay. The settings on record: concentration not given here.
In data set [28] the target is Mitogen-activated protein kinase 1 (Homo sapiens) (UniProt P28482). The experiment in a line: Inhibition of human recombinant MAPK1 in presence of ATP by Z-lyte kinase assay. To be noted: concentration not given here.
Data set [29] concerns the target Mitogen-activated protein kinase 15 (Homo sapiens) (UniProt Q8TD08). The experiment in a line: Inhibition of human recombinant MAPK15 by Lanthascreen assay. To be noted: concentration not given here.
For data set [30], the target named is Mitogen-activated protein kinase 3 (Homo sapiens) (UniProt P27361). The experiment in a line: Inhibition of human recombinant MAPK3 in presence of ATP by Z-lyte kinase assay. The settings on record: concentration not given here.
Data set [31] deals with MAP kinase-activated protein kinase 5 (Homo sapiens) (UniProt Q8IW41). The experiment in a line: Inhibition of human recombinant PRAK in presence of ATP by Z-lyte kinase assay. To be noted: concentration not given here.
Data set [32] addresses MAP kinase-interacting serine/threonine-protein kinase 1 (Homo sapiens) (UniProt Q9BUB5). The experiment in a line: Inhibition of human recombinant MNK1 in presence of ATP by Z-lyte kinase assay. To be noted: concentration not given here.
In data set [33] the target is MAP kinase-interacting serine/threonine-protein kinase 2 (Homo sapiens) (UniProt Q9HBH9). The experiment in a line: Inhibition of human recombinant MNK2 by Lanthascreen assay. To be noted: concentration not given here.
For data set [34], the target named is Serine/threonine-protein kinase NLK (Homo sapiens) (UniProt Q9UBE8). The experiment in a line: Inhibition of human recombinant NLK by Lanthascreen assay. To be noted: concentration not given here.
Chain of Serine/threonine-protein kinase NLK (Homo sapiens) (Q9UBE8 whole entry): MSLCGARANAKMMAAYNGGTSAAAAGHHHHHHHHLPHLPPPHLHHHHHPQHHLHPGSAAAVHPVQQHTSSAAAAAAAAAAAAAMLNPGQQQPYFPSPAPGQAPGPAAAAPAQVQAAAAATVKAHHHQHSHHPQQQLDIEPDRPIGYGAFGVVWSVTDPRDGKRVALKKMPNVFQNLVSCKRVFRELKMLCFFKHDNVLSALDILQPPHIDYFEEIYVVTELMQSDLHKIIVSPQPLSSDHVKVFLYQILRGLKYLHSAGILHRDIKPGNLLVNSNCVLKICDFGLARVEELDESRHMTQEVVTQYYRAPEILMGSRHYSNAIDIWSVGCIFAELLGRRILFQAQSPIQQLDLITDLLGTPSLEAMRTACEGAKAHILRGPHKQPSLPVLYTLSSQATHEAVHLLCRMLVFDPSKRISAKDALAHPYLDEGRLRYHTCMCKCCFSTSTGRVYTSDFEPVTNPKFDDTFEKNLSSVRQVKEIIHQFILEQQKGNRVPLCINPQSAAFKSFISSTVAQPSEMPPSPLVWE
In data set [35] the target is Platelet-derived growth factor receptor alpha (Homo sapiens) (UniProt P16234). The experiment in a line: Inhibition of human recombinant PDGFRA in presence of ATP by Z-lyte kinase assay. To be noted: concentration not given here.
Data set [36] deals with Platelet-derived growth factor receptor beta (Homo sapiens) (UniProt P09619). The experiment in a line: Inhibition of human recombinant PDGFRB in presence of ATP by Z-lyte kinase assay. The settings on record: concentration not given here.
Chain of Platelet-derived growth factor receptor beta (Homo sapiens) (P09619 whole entry): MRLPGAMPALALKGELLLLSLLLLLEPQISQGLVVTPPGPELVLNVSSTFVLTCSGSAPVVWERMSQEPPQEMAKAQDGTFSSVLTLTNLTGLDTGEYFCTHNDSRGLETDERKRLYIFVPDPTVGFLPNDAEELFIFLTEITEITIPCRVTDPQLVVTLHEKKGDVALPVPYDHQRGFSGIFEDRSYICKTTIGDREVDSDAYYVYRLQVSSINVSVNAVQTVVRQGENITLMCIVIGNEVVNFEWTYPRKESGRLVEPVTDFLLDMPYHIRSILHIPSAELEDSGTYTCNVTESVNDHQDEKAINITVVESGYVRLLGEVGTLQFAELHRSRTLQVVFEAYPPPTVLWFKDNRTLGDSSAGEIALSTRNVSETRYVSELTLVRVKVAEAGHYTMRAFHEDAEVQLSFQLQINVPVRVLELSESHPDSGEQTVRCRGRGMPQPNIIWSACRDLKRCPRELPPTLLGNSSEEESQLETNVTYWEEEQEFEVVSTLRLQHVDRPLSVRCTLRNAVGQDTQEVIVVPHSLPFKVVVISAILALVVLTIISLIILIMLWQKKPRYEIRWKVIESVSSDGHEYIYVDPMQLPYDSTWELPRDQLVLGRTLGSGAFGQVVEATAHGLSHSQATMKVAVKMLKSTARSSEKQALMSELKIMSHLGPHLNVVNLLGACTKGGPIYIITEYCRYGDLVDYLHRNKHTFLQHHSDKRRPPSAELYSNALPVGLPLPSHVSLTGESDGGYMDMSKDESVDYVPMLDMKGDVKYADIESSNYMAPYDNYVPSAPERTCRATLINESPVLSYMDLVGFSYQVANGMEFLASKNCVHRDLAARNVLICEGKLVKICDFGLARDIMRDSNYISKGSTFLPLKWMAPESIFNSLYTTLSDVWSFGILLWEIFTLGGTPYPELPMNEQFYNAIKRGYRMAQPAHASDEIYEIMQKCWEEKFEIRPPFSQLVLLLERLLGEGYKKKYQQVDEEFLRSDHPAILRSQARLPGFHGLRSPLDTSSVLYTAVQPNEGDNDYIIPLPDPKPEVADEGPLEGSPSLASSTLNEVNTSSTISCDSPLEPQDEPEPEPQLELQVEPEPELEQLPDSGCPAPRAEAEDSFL
For data set [37], the target named is Serine/threonine-protein kinase D3 (Homo sapiens) (UniProt O94806). The experiment in a line: Inhibition of human recombinant PKD3 in presence of ATP by Z-lyte kinase assay. To be noted: concentration not given here.
Data set [38] addresses Serine/threonine-protein kinase D2 (Homo sapiens) (UniProt Q9BZL6). The experiment in a line: Inhibition of human recombinant PKD2 in presence of ATP by Z-lyte kinase assay. To be noted: concentration not given here.
In data set [39] the target is Ribosomal protein S6 kinase alpha-1 (Homo sapiens) (UniProt Q15418). The experiment in a line: Inhibition of human recombinant RSK1 in presence of ATP by Z-lyte kinase assay. To be noted: concentration not given here.
Chain of Ribosomal protein S6 kinase alpha-1 (Homo sapiens) (Q15418 whole entry): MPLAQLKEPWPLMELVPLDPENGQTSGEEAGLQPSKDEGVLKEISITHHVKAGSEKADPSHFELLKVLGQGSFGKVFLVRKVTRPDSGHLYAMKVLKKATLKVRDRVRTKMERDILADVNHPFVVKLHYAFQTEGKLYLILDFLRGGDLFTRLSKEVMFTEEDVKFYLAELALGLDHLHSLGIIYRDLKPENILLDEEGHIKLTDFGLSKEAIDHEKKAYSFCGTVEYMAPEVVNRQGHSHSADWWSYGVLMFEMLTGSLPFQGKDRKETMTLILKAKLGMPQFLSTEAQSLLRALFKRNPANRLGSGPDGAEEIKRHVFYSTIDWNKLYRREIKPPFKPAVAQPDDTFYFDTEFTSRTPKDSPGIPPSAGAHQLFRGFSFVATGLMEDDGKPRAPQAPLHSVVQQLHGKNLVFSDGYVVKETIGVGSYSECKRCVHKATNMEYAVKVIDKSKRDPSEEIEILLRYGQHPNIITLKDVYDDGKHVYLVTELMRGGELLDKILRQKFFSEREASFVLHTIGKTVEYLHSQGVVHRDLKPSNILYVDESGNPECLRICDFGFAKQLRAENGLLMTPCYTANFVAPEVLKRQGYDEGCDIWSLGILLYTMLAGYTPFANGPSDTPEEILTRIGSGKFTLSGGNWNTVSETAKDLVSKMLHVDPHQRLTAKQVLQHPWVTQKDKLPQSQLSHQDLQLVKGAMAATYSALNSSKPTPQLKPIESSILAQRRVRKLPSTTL
The target of data set [40] is Ribosomal protein S6 kinase alpha-2 (Homo sapiens) (UniProt Q15349). The experiment in a line: Inhibition of human recombinant RSK3 in presence of ATP by Z-lyte kinase assay. The settings on record: concentration not given here.
The target in data set [41] is Ribosomal protein S6 kinase alpha-3 (Homo sapiens) (UniProt P51812). The experiment in a line: Inhibition of human recombinant RSK2 in presence of ATP by Z-lyte kinase assay. The settings on record: concentration not given here.
The target in data set [42] is Ribosomal protein S6 kinase alpha-6 (Homo sapiens) (UniProt Q9UK32). The experiment in a line: Inhibition of human recombinant RSK4 in presence of ATP by Z-lyte kinase assay. To be noted: concentration not given here.
In data set [43] the target is TGF-beta receptor type-2 (Homo sapiens) (UniProt P37173). The experiment in a line: Inhibition of human recombinant TGFBR2 by Lanthascreen assay. To be noted: concentration not given here.
Data set [44] concerns the target Mitogen-activated protein kinase kinase kinase 20 (Homo sapiens) (UniProt Q9NYL2). The experiment in a line: Inhibition of human recombinant ZAK by Lanthascreen assay. To be noted: concentration not given here.
Data set [45] concerns the target Glycogen synthase kinase-3 beta (Homo sapiens, UniProt P49841, C199A). The experiment in a line: Inhibition of human GSK-3beta C199A mutant incubated with substrate in presence of ATP measured by serial dilution assay.
A short description of data set [46]: Thiol reactivity of the compound with ethanethiol DTT by HPLC analysis. The class given is physicochemical.
A short description of data set [47]: Thiol reactivity of the compound with tri-butylphosphine by HPLC analysis. It counts as physicochemical.

Activity calls are given as the source filed them. The calls are words filed in the database; no cut-off is given here.

Chain of Dual specificity mitogen-activated protein kinase kinase 1 (Homo sapiens) (Q02750 whole entry): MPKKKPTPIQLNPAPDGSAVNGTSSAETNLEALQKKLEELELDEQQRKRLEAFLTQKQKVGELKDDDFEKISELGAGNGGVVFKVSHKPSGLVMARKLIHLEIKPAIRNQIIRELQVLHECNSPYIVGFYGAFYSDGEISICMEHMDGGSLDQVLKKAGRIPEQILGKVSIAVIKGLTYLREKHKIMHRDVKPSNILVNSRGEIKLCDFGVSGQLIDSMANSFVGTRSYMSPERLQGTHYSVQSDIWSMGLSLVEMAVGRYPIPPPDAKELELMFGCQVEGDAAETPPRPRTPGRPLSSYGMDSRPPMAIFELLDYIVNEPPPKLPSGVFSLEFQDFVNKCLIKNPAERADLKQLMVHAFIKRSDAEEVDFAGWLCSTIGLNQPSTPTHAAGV
Chain of Mitogen-activated protein kinase 15 (Homo sapiens) (Q8TD08 whole entry): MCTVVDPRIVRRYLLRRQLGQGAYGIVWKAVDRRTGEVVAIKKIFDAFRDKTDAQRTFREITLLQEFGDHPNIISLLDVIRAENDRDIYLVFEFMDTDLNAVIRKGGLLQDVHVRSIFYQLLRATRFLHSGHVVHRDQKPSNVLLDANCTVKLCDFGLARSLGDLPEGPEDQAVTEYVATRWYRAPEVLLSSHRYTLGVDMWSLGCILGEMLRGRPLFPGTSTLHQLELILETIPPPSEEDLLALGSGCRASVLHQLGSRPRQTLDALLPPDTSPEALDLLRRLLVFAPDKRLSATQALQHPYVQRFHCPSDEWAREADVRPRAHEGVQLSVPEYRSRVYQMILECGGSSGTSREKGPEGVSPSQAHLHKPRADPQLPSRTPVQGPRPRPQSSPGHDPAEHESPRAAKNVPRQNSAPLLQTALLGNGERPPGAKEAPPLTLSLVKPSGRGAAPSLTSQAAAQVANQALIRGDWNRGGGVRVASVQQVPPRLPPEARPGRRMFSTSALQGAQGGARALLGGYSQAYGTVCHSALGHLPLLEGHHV

As for `COc1cc(O)c2c(c1)[C@H]1O[C@@H]1C[C@H](O)[C@H](O)C(=O)/C=C\C[C@H](C)OC2=O` [HYPOTHEMYCIN], the IC50 in [1] was 11300 nM; in [2], 663 nM. Further, the inhibition entry in data set [3], in [4] and in data set [5] was “inactive” each time.

`O=C1Cc2c([nH]c3ccc([N+](=O)[O-])cc23)-c2ccccc2N1`: the inhibition entry in data set [6] was “Active”.

`OC1(c2ccccc2)CSC(=S)N1Cc1ccncc1` (configuration not stated): the inhibition entry in [7] was “Tde”; in data set [8], “Tde”; in [11], 11%; in data set [12], 3.2%; in [13], 0%; in [14] it was 2%. Also, the inhibition in [15] was 1.9%; in data set [16], 24%; in [17] it was 91%; in [18] it was 89%; in [19], 4%; in data set [20], 6%. For the same compound, the inhibition in data set [21] stood at 5%; in data set [22] it was 7%; in [23], 4%; in data set [24] it was 7%; in data set [25] it was 12%; in data set [26], 1%. Moreover, the inhibition in [27] was 21%; in [28], 29%; in [29] it was 26%; in [30], 26%; in data set [31] it was 60%; in [32] it was -2%. Moreover, the inhibition in data set [33] was 1%; in data set [34], 24%; in data set [35] it was -2%; in data set [36], -2%; in data set [37], 10%; in [38], 11%. The inhibition in data set [39] was determined as 6%; in data set [40], 9%; in data set [41] it was 11%; in data set [42], 18%; in data set [43] it was 20%; in data set [44], 9%. In addition, the inhibition entry in [9] and in data set [10] was “Active” each time. For the same compound, the IC50 in [1] stood at 370 nM; in data set [2], 102 nM; in [45], 121000 nM. For the same compound, the Drug metabolism result in [46] and in data set [47] was “Metabolite_Notdetected” throughout. Further, the inhibition entry in data set [3], in data set [4] and in [5] was “inactive” throughout.
